According to paper PMC4946967 (ACS chemical biology, 2016):
Substitutions are numbered along the chain they refer to. Where “and” joins values, the source holds several entries; their conditions need not be identical. Equal values may be shown once. Entries after “also recorded” stand apart in the source; their conditions may differ. Read-outs that look alike come from different tables or passages of the source. Values belong to the compound of their own block, whether it stands above or below them.

Tests used:
wt-mouse-(m)RNR-α = target: T1, wt-mouse-(m)RNR-α (Mus musculus, UniProt P07742); type: cell-based; settings: 3 h treatment; 5, 50, 300 μM ClF, ClA, FlUMP; wt-mRNR-α 3T3 cells
T1 sequence (P07742 1-792): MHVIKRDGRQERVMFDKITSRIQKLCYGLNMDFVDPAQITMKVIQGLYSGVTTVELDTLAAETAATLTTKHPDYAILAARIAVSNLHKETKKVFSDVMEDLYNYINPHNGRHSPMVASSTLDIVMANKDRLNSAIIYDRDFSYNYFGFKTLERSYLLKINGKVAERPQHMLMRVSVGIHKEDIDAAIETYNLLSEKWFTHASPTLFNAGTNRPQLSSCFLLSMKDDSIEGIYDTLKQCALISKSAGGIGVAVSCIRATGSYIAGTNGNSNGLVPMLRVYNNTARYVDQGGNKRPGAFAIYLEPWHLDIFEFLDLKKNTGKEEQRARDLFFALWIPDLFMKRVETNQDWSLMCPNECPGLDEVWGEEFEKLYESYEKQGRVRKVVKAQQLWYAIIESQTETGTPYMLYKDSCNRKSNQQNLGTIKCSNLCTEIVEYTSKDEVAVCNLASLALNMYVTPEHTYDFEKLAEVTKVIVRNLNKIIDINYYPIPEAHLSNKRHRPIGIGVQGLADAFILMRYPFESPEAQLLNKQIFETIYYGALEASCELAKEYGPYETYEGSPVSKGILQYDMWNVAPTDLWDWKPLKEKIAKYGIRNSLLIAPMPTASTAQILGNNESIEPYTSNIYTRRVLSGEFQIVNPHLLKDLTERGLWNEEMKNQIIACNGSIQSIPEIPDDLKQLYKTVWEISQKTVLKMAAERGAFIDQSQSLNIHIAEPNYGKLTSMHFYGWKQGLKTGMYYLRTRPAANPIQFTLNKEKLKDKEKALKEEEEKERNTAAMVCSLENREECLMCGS

[1] = target: T2, mutant (D57N)-mouse(m)RNR-α (Mus musculus, UniProt P07742, D57N); type: cell-based; settings: 3 h treatment; 5, 50, 300 μM ClF, ClA, FlUMP; D57N-mRNR-α 3T3 cells
T2 sequence (P07742 1-792 D57N): T1 sequence (P07742 1-792) with D57N

[2] = test system: Flp-In 293 T-REx cells expressing RNR-α-Flag; assay: Proliferation inhibition assay
[3] = test system: Flp-In 293 T-REx cells expressing D57N-α-Flag; assay: Proliferation inhibition assay
D57N RNR-α = target: T3, D57N RNR-α (Homo sapiens, UniProt P23921, D57N); assay: Fluorescence anisotropy displacement of Texas Red-5-dATP from D57N RNR-α; type: binding; settings: D57N RNR-α 6 μM, T*-dATP 1.2 μM
T3 sequence (P23921 1-792 D57N): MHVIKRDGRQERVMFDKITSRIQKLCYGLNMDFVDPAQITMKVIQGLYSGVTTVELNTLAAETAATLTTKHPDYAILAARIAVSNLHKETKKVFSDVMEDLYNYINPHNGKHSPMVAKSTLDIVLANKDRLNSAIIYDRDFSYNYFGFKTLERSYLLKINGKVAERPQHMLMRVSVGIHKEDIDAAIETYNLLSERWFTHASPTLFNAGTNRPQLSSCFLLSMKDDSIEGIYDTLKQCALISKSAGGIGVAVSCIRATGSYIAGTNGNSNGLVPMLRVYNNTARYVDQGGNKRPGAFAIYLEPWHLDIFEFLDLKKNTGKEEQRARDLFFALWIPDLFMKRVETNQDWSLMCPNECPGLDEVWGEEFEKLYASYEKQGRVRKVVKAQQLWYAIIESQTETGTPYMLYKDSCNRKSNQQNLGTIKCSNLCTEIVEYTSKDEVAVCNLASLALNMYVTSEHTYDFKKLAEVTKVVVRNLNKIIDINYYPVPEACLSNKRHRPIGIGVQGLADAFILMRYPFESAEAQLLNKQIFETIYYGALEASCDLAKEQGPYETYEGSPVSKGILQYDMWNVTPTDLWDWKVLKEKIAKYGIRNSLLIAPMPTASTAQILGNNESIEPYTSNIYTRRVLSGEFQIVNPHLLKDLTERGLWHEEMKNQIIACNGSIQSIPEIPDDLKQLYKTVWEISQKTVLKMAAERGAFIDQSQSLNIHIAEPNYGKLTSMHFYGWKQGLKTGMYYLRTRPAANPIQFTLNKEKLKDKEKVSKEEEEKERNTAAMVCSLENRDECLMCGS

wild type RNR-α = target: T4, wild type RNR-α (Homo sapiens, UniProt P23921); assay: Fluorescence anisotropy displacement of Texas Red-5-dATP from wild type RNR-α; settings: for further decrease in FA after S site preblocked with saturating dTTP: RNR-α, T*-dATP, saturating ligand then added
T4 sequence (P23921 1-792): T3 sequence (P23921 1-792 D57N) with N57D

D57N-human RNR-α mutant [4] = target: T5, D57N-human RNR-α mutant (Homo sapiens, UniProt P23921, D57N); assay: Inhibition of D57N RNR-α reductase activity; type: biochemical; settings: up to at least 10-fold above the Ki for wt
T5 sequence (P23921 1-792 D57N): T3 sequence (P23921 1-792 D57N)

RNR-α [5] = target: T6, RNR-α (Homo sapiens, UniProt P23921); assay: FRET-quenching assay reporting ligand-driven RNR-α oligomerization
T6 sequence (P23921 1-792): T3 sequence (P23921 1-792 D57N) with N57D

E. coli RNR = settings: cited from earlier work
RNR-α [6] = target: T6, RNR-α; assay: Gel filtration analysis of RNR-α oligomeric state; settings: for oligomeric state by gel filtration of α presaturated with dATP (S and A sites): running buffer without nucleotides
RNR-β = target: T7, RNR-β (Homo sapiens, UniProt P31350); assay: RNR β-specific activity assay; type: biochemical
T7 sequence (P31350 1-389): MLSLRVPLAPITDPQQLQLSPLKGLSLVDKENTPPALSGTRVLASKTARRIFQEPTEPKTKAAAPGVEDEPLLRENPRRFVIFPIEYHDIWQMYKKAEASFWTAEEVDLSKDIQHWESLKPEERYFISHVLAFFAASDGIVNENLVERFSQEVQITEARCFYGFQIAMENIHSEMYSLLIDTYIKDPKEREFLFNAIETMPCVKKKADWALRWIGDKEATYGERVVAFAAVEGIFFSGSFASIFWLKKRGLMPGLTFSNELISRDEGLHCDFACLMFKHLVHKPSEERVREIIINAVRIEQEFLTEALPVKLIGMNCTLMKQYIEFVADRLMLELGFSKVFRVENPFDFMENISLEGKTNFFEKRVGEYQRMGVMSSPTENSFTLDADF

D57N-human RNR-α mutant [7] = target: T5, D57N-human RNR-α mutant; settings: CDP as substrate; cited from earlier work

Compound: Nc1nc(F)nc2c1ncn2[C@@H]1O[C@H](COP(=O)(O)O)[C@@H](O)[C@@H]1O [FlUMP]
RNR inhibition in cells (rate of [5-3H]-dCDP formation in lysate) (wt-mouse-(m)RNR-α): potent RNR inhibition
RNR reductase activity in D57N-α-expressing lines after drug treatment [1]: not suppressed
effect of RNR-α overexpression on cytotoxicity relative to noninduced cells ([2]; 48 h drug): no protection
effect of D57N-α overexpression on cytotoxicity relative to noninduced cells ([3]; 48 h drug): no protection

drop in FA (D57N RNR-α): 39 ± 1%
drop in FA on addition of S-site binder (wild type RNR-α; RNR-α 6 μM, T*-dATP 1.2 μM, saturating ligand): 49 ± 1% and ~ 50%
Compound: Cc1cn([C@H]2C[C@H](O)[C@@H](COP(=O)(O)OP(=O)(O)OP(=O)(O)O)O2)c(=O)[nH]c1=O [dTTP]

Compound: Nc1nc(F)nc2c1ncn2[C@@H]1O[C@H](COP(=O)(O)OP(=O)(O)OP(=O)(O)O)[C@@H](O)[C@@H]1O [FlUTP]
inhibition of D57N-α (D57N-human RNR-α mutant [4]): unresponsive; also recorded: failed to inhibit
time to complete oligomerization (time-dependent FRET) (RNR-α [5]): less than 5 min

decrease in FA relative to dTTP/dGTP (fold less) (D57N RNR-α): ~ 7 fold
further decrease in FA after S site preblocked with saturating dTTP (wild type RNR-α): 20 ± 1% and ~ 20%
drop in FA on wild type protein compared with D57N (wild type RNR-α; ligand added in place of dTTP/dGTP): significantly higher drop in FA
Compound: Nc1nc(Cl)nc2c1ncn2[C@H]1C[C@H](O)[C@@H](COP(=O)(O)OP(=O)(O)OP(=O)(O)O)O1 [ClATP]
inhibition of D57N-α (D57N-human RNR-α mutant [4]): unresponsive; also recorded: failed to inhibit

Compound: Nc1nc(Cl)nc2c1ncn2[C@@H]1O[C@H](COP(=O)(O)OP(=O)(O)OP(=O)(O)O)[C@@H](O)[C@@H]1F [ClFTP]
inhibition of E. coli RNR (E. coli RNR): failed to inhibit

Compound: Nc1ccn([C@@H]2O[C@H](CO)[C@@H](O)C2(F)F)c(=O)n1 [F2C, gemcitabine]
RNR reductase activity in D57N-α-expressing lines after drug treatment [1]: sensitive

Compound: Nc1nc(F)nc2c1ncn2[C@@H]1O[C@H](COP(=O)(O)OP(=O)(O)O)[C@@H](O)[C@@H]1O [FlUDP]
oligomeric state of eluted α by gel filtration (RNR-α [6]; 20 μM FlUDP included in running buffer): exclusively α6
inhibition of D57N-α (D57N-human RNR-α mutant [4]): did not inhibit; also recorded: neither of the diphosphates inhibited
time to complete oligomerization (time-dependent FRET) (RNR-α [5]): less than 5 min

Compound: Nc1ccn([C@@H]2O[C@H](COP(=O)(O)OP(=O)(O)O)[C@@H](O)C2(F)F)c(=O)n1 [F2CDP, gemcitabine diphosphate]
inhibition of D57N-α (D57N-human RNR-α mutant [4]): inhibits D57N-α as effectively as the wild type; also recorded: promoted inactivation of D57N-α as well as wt-α

β-specific activity (RNR-β): suppressed
Compound: NC(=S)N/N=C/c1ncccc1N [triapine]

Compound: Nc1nc(Cl)nc2c1ncn2[C@H]1C[C@H](O)[C@@H](CO)O1 [ClA, cladribine]
RNR inhibition in cells (rate of [5-3H]-dCDP formation in lysate) (wt-mouse-(m)RNR-α): potent RNR inhibition
RNR reductase activity in D57N-α-expressing lines after drug treatment [1]: not suppressed
effect of RNR-α overexpression on cytotoxicity relative to noninduced cells [2]: small effect on the EC50
protection against cytotoxicity upon tet induction relative to noninduced [3]: > 20 fold

oligomeric state by gel filtration of α presaturated with dATP (S and A sites) (RNR-α [6]): only elutes as lower-order species
Compound: Nc1ncnc2c1ncn2[C@H]1C[C@H](O)[C@@H](COP(=O)(O)OP(=O)(O)OP(=O)(O)O)O1 [dATP]
reduced affinity at the A site of D57N relative to wt (D57N-human RNR-α mutant [7]): ~ 300 fold

oligomeric state by gel filtration of α presaturated with dATP (S and A sites) (RNR-α [6]): hexameric peak was observed
time to complete oligomerization (time-dependent FRET) (RNR-α [5]): less than 5 min
further decrease in FA after S site preblocked with saturating dTTP (wild type RNR-α): no statistically significant changes
Compound: Nc1nc(Cl)nc2c1ncn2[C@H]1C[C@H](O)[C@@H](COP(=O)(O)OP(=O)(O)O)O1 [ClADP]
inhibition of D57N-α (D57N-human RNR-α mutant [4]): did not inhibit; also recorded: failed to inhibit; also recorded: neither of the diphosphates inhibited
